Measured values as given in patent publication EP2787958B1, “CHELIDONIUM MAJUS EXTRACTS AND THEIR USE IN THE TREATMENT OF SKIN DISORDERS AND PROMOTION OF SKIN REGENERATION” (priority 2011, dated 2013).
Read-outs that look alike come from different tables or passages of the source.

Experiments:
HDF cells [1] = assay: Summary of uses and toxic effects deduced from the cell assays (Table 1); format: cell-based, Human
In short: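 HDF cells exposed to test substances at a given dosage for 24 h; uses and toxicity inferred from free-radical scavenging, mitochondrial dehydrogenase activity, IL-1β/IL-6 production (basal or induced by 100 µM H2O2), proliferation under standard growth conditions, and senescence-like morphology.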

[2] = tested on: Human dermal fibroblasts (HDF); assay: Mitochondrial dehydrogenase activity (WST-1 formazan assay) in HDF cells; conditions: for Revitalizing agent: 24 hours; for activity at 1 µM / activity at 7.3 µM: Homo sapiens, Fibroblast, read-out: % mitochondrial dehydrogenase activity ± SD
interleukin 6 (IL-6) = assay: Inflammatory cytokines in cell supernatant (Mosaic ELISA microarray): IL-6; format: cell-based, Human; conditions: for IL-6 ng/(ml* No. of cells from photo) ± SD: 24 hours; for IL-6 production (effect in words): 1-10 µM
HDF cells [3] = assay: Evaluation of cell proliferation (counting of Sirius Red stained cells in photographs); conditions: 24 hours
[4] = tested on: collagen produced by HDF cells; assay: Quantity of collagen produced by the cells (elution of Sirius Red)
[5] = Anti-radical activity (decay of the DPPH radical); format: biochemical; conditions: for Anti-radical (skin protective): 24 hours
In short: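 Test substance in ethanol mixed 1:1 with 200 µM DPPH (stock concentrations), in quadruplicate. Absorbance read at 530 nm after 30 min, with vitamin C and ethanol-only controls. IC50 from variable-slope Hill regression of dose-activity curves.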

interleukin 1β (IL-1β) = assay: Inflammatory cytokines in cell supernatant (Mosaic ELISA microarray): IL-1β; format: cell-based, Human; conditions: for IL-1β ng/(ml* No. of cells from photo) ± SD: 24 hours; for IL-1β production (effect in words): 1-10 µM
[6] = Dose 1 µm (coptisine: 1 pm [sic]), 24 hours
[7] = Dose 1 µm (coptisine: 1 pm [sic])

Compound: COc1ccc2c(c1OC)CN1CCc3cc4c(cc3C1=C2)OCO4 [dihydroberberine]
- Cytotoxic (HDF cells [1]): No
- Anti-fibrotic (prevention of scar formation, also from acne) (HDF cells [1]; [6]): Yes (↓collagen)
- Cytoprotective (antioxidant, anti-inflammatory and anti-ageing; useful also in the treatment of acne) (HDF cells [1]; [6]): No
- Wound-healing (HDF cells [1]; [6]): No
- Anti-fibrotic (prevention of scar formation, also from acne) (HDF cells [1]; Dose 7.3 µm, 24 hours): Yes (↓collagen)
- Cytoprotective (antioxidant, anti-inflammatory and anti-ageing; useful also in the treatment of acne) (HDF cells [1]; Dose 7.3 µm, 24 hours): No
- Cytotoxic (HDF cells [1]; Dose 7.3 µm, 24 hours): No
- Irritant (HDF cells [1]; Dose 7.3 µm, 24 hours): Yes (↑IL-6, ↑IL-1β)
- Wound-healing (HDF cells [1]; Dose 7.3 µm, 24 hours): No
- concentrations at which toxic (irritant) effects are shown (HDF cells [1]; exposure for 24 hours): greater than or equal to 1 µM
- Irritant (HDF cells [1]; human, 24 h, 1 µm): Yes (↑IL-6, ↑IL-1β)
- concentrations below which no significant effects on mitochondrial dehydrogenase activity are shown [2]: below 0.1 µM
- mitochondrial dehydrogenase activity (effect in words) ([2]; 100 µM): reduced
- mitochondrial dehydrogenase activity (effect in words) ([2]; 1 and 10 µM, 18 h and 42 h, more marked at 42 h): increased with respect to the control
- Revitalizing agent [2, 7]: Yes
- Revitalizing agent ([2]; Dose 7.3 µm): Yes
- activity at 1 µM ([2]; 18 h): 131 ± 5.4%
- activity at 7.3 µM ([2]; 18 h): 128 ± 13.8%
- activity at 1 µM ([2]; 42 h): 143 ± 14.1%
- activity at 7.3 µM ([2]; 42 h): 137 ± 17.6%
- activity at 1 µM ([2]; 46 h): 121 ± 19.6%
- activity at 7.3 µM ([2]; 46 h): 192 ± 24.4%
- mitochondrial dehydrogenase activity (effect in words) ([2]; fibroblast cells, higher doses): inhibit mitochondrial dehydrogenase activity
- mitochondrial dehydrogenase activity (effect in words) ([2]; fibroblast cells, low dosage): stimulate mitochondrial dehydrogenase activity
- IL-6 ng/(ml* No. of cells from photo) ± SD (interleukin 6 (IL-6); 1 µM, 34 ng/ml TGF-β1): 512±25 ng/(ml* No. of cells from photo)
- IL-6 ng/(ml* No. of cells from photo) ± SD (interleukin 6 (IL-6); 1 µM, 100 µM H2O2): 1328±2 ng/(ml* No. of cells from photo)
- IL-6 ng/(ml* No. of cells from photo) ± SD (interleukin 6 (IL-6); 1 µM, Standard conditions): 541±24 ng/(ml* No. of cells from photo)
- IL-6 ng/(ml* No. of cells from photo) ± SD (interleukin 6 (IL-6); 7.3 µM, 34 ng/ml TGF-β1): 704±60 ng/(ml* No. of cells from photo)
- IL-6 ng/(ml* No. of cells from photo) ± SD (interleukin 6 (IL-6); 7.3 µM, 100 µM H2O2): 1685±444 ng/(ml* No. of cells from photo)
- IL-6 ng/(ml* No. of cells from photo) ± SD (interleukin 6 (IL-6); 7.3 µM, Standard conditions): 534±39 ng/(ml* No. of cells from photo)
- IL-6 production (effect in words) (interleukin 6 (IL-6); 34 ng/ml TGF-β1): tendency to antagonise the stimulation of IL-6 induced by TGF-β1
- IL-6 production (effect in words) (interleukin 6 (IL-6); 100 µM H2O2): significant effects in modulating IL-6 production
- IL-6 production (effect in words) (interleukin 6 (IL-6); standard conditions): significant effects in modulating IL-6 production
- No. of cells from photo ± SD (HDF cells [3]; 1 µM, 34 ng/ml TGF-β1): 232±13
- No. of cells from photo ± SD (HDF cells [3]; 1 µM, 100 µM H2O2): 146±26
- No. of cells from photo ± SD (HDF cells [3]; 1 µM, Standard conditions): 160±18
- No. of cells from photo ± SD (HDF cells [3]; 7.3 µM, 34 ng/ml TGF-β1): 193±27
- No. of cells from photo ± SD (HDF cells [3]; 7.3 µM, 100 µM H2O2): 108±3
- No. of cells from photo ± SD (HDF cells [3]; 7.3 µM, Standard conditions): 129±13
- collagen production (effect in words) ([4]; 1-10 µM (1 µM and 10 µM), 34 ng/ml TGF-β1): antagonizes the stimulation of collagen induced by 34 ng/ml TGF-β1
- collagen production (effect in words) ([4]; 1-10 µM (1 µM and 10 µM), 100 µM H2O2): stimulates collagen production in a dose-dependent manner
- collagen production (effect in words) ([4]; 1-10 µM, standard conditions): stimulates collagen production in a dose-dependent manner
- anti-radical effects (in words) ([5]; 1 mM): shows anti-radical effects
- % DPPH activity ([5]; 1 mM, 30 minutes): 55%
- Anti-radical (skin protective) [5, 7]: Yes
- Anti-radical (skin protective) ([5]; Dose 7.3 µm): Yes
- IC50 ([5]; anti-radical activity, Hill equation): 62 µM
- IL-1β ng/(ml* No. of cells from photo) ± SD (interleukin 1β (IL-1β); 1 µM, 34 ng/ml TGF-β1): 99±10 ng/(ml* No. of cells from photo)
- IL-1β ng/(ml* No. of cells from photo) ± SD (interleukin 1β (IL-1β); 1 µM, 100 µM H2O2): 164±1 ng/(ml* No. of cells from photo)
- IL-1β ng/(ml* No. of cells from photo) ± SD (interleukin 1β (IL-1β); 1 µM, Standard conditions): 108±1 ng/(ml* No. of cells from photo)
- IL-1β ng/(ml* No. of cells from photo) ± SD (interleukin 1β (IL-1β); 7.3 µM, 34 ng/ml TGF-β1): 129±1 ng/(ml* No. of cells from photo)
- IL-1β ng/(ml* No. of cells from photo) ± SD (interleukin 1β (IL-1β); 7.3 µM, 100 µM H2O2): 212±18 ng/(ml* No. of cells from photo)
- IL-1β ng/(ml* No. of cells from photo) ± SD (interleukin 1β (IL-1β); 7.3 µM, Standard conditions): 125±2 ng/(ml* No. of cells from photo)
- IL-1β production (effect in words) (interleukin 1β (IL-1β); 34 ng/ml TGF-β1): antagonizes the stimulation of IL-1β induced by 34 ng/ml TGF-β1
- IL-1β production (effect in words) (interleukin 1β (IL-1β); 100 µM H2O2): tendency to increase IL-1β production in a dose-dependent manner
- IL-1β production (effect in words) (interleukin 1β (IL-1β); standard conditions): tendency to increase IL-1β production in a dose-dependent manner
